Reference: patent US11224604B2, “Treatment of graft versus host disease in transplant patients” (PRIOTHERA LIMITED, priority 2013, dated 2022)

Test system: lethal GvHD in mice
Test: lethal GvHD in mice (BALB/c splenic cells into cyclophosphamide-treated BDF1 mice)
Assay type: in vivo
Details: day 1 to day 20
Experimental: Female BALB/cAnNCrj mice and female Crj:BDF1 mice were purchased from CHARLES RIVER JAPAN and used at 10 weeks of age as donors and recipients, respectively.
Spleens were collected from donor BALB/c mice. […] The single cell suspension was passed through a cell strainer (70 um, FALCON). The filtrate was centrifuged to collect the cell pellet. […] The number of nucleated cells in the suspension was calculated by staining using Turk's solution. […] This suspension served as a splenic cell suspension.
Recipient BDF1 mice were treated with a dose of cyclophosphamide (SHIONOGI & CO., LTD.) at 300 mg/kg intraperitoneally on day0. One day after cyclophosphamide treatment, the BDF1 mice were intravenously injected with 0.25 mL
(5×10^7 cells/mouse) of the splenic cell suspension from BALB/c mice to induce lethal GvHD.
Treatment with a Compound (Control/CsA/KRP203)
The compounds were orally administrated once a day from day 1 (just after injection of the splenic cells) to day 20. The mice were observed until day 70.

Structure (SMILES): NC(CO)(CO)CCc1ccc(Sc2cccc(OCc3ccccc3)c2)cc1Cl [KRP-203, 2-amino-2-[4-(3-benzyloxyphenylthio)-2-chlorophenyl]ethyl-propane-1,3-diol]
- % Survival (KRP-203 0.01 mg/kg orally once a day, Day 5 after injection of the splenic cells): 100%
- % Survival (KRP-203 0.01 mg/kg orally once a day, Day 8 after injection of the splenic cells): 89%
- % Survival (KRP-203 0.01 mg/kg orally once a day, Day 10 after injection of the splenic cells): 67%
- % Survival (KRP-203 0.01 mg/kg orally once a day, Day 12 after injection of the splenic cells): 44%
- % Survival (KRP-203 0.01 mg/kg orally once a day, Day 20 after injection of the splenic cells): 44%
- % Survival (KRP-203 0.01 mg/kg orally once a day, Day 25 after injection of the splenic cells): 44%
- % Survival (KRP-203 0.01 mg/kg orally once a day, Day 30 after injection of the splenic cells): 44%
- % Survival (KRP-203 0.01 mg/kg orally once a day, Day 40 after injection of the splenic cells): 33%
- % Survival (KRP-203 0.01 mg/kg orally once a day, Day 70 after injection of the splenic cells): 33%
- % Survival (KRP-203 0.03 mg/kg orally once a day, Day 5 after injection of the splenic cells): 100%
- % Survival (KRP-203 0.03 mg/kg orally once a day, Day 8 after injection of the splenic cells): 100%
- % Survival (KRP-203 0.03 mg/kg orally once a day, Day 10 after injection of the splenic cells): 100%
- % Survival (KRP-203 0.03 mg/kg orally once a day, Day 12 after injection of the splenic cells): 100%
- % Survival (KRP-203 0.03 mg/kg orally once a day, Day 20 after injection of the splenic cells): 100%
- % Survival (KRP-203 0.03 mg/kg orally once a day, Day 25 after injection of the splenic cells): 100%
- % Survival (KRP-203 0.03 mg/kg orally once a day, Day 30 after injection of the splenic cells): 100%
- % Survival (KRP-203 0.03 mg/kg orally once a day, Day 40 after injection of the splenic cells): 100%
- % Survival (KRP-203 0.03 mg/kg orally once a day, Day 70 after injection of the splenic cells): 100%
- % Survival (KRP-203 0.1 mg/kg orally once a day, Day 5 after injection of the splenic cells): 100%
- % Survival (KRP-203 0.1 mg/kg orally once a day, Day 8 after injection of the splenic cells): 100%
- % Survival (KRP-203 0.1 mg/kg orally once a day, Day 10 after injection of the splenic cells): 100%
- % Survival (KRP-203 0.1 mg/kg orally once a day, Day 12 after injection of the splenic cells): 100%
- % Survival (KRP-203 0.1 mg/kg orally once a day, Day 20 after injection of the splenic cells): 100%
- % Survival (KRP-203 0.1 mg/kg orally once a day, Day 25 after injection of the splenic cells): 100%
- % Survival (KRP-203 0.1 mg/kg orally once a day, Day 30 after injection of the splenic cells): 100%
- % Survival (KRP-203 0.1 mg/kg orally once a day, Day 40 after injection of the splenic cells): 100%
- % Survival (KRP-203 0.1 mg/kg orally once a day, Day 70 after injection of the splenic cells): 100%
- % Survival (KRP-203 0.3 mg/kg orally once a day, Day 5 after injection of the splenic cells): 100%
- % Survival (KRP-203 0.3 mg/kg orally once a day, Day 8 after injection of the splenic cells): 100%
- % Survival (KRP-203 0.3 mg/kg orally once a day, Day 10 after injection of the splenic cells): 100%
- % Survival (KRP-203 0.3 mg/kg orally once a day, Day 12 after injection of the splenic cells): 100%
- % Survival (KRP-203 0.3 mg/kg orally once a day, Day 20 after injection of the splenic cells): 100%
- % Survival (KRP-203 0.3 mg/kg orally once a day, Day 25 after injection of the splenic cells): 100%
- % Survival (KRP-203 0.3 mg/kg orally once a day, Day 30 after injection of the splenic cells): 100%
- % Survival (KRP-203 0.3 mg/kg orally once a day, Day 40 after injection of the splenic cells): 100%
- % Survival (KRP-203 0.3 mg/kg orally once a day, Day 70 after injection of the splenic cells): 100%
- % Survival (KRP-203 1 mg/kg orally once a day, Day 5 after injection of the splenic cells): 100%
- % Survival (KRP-203 1 mg/kg orally once a day, Day 8 after injection of the splenic cells): 100%
- % Survival (KRP-203 1 mg/kg orally once a day, Day 10 after injection of the splenic cells): 100%
- % Survival (KRP-203 1 mg/kg orally once a day, Day 12 after injection of the splenic cells): 100%
- % Survival (KRP-203 1 mg/kg orally once a day, Day 20 after injection of the splenic cells): 100%
- % Survival (KRP-203 1 mg/kg orally once a day, Day 25 after injection of the splenic cells): 100%
- % Survival (KRP-203 1 mg/kg orally once a day, Day 30 after injection of the splenic cells): 100%
- % Survival (KRP-203 1 mg/kg orally once a day, Day 40 after injection of the splenic cells): 100%
- % Survival (KRP-203 1 mg/kg orally once a day, Day 70 after injection of the splenic cells): 100%
